Test results: patent US7396944B2, “Thiophene derivatives, their manufacture and use as pharmaceutical agents” (Hoffmann-La Roche Inc., priority 2004, dated 2008)

system: HT-29 cells (human colon carcinoma cell line); assay: MTT assay on HT-29 human colon carcinoma cell line; assay type: cell-based; conditions: Homo sapiens, 120 h, MTT assay after 5 days, read-out: IC90 HT29
Description: To show the activity of the compounds according to this invention, their effects on a human colon carcinoma cell line was evaluated using a standard MTT-assay. MTT (3-(4,5-dimethylthiazol-2-yl)-2,5-diphenyl tetrazolium bromide) is widely used for the quantitative determination of cytotoxic effects or in vitro chemosensitivity of tumor cells. The assay is based on the cleavage of the yellow tetrazolium salt (MTT) to purple formazan crystals by metabolic active cells. For details, see Rubinstein, L. V., et al., J. Natl. Cancer Inst. 82 (1990) 1113-1118.
We proceeded as follows: HT-29 cells (human colon carcinoma cell line, ATCC-No. HTB-38) were cultivated in RPMI 1640 medium with GlutaMAX™ I (Invitrogen, Cat-No. 61870-010), 2.5% fetal calf serum (FCS, Sigma Cat-No. F4135 (FBS)), 2 mM glutamine, 100 units/ml penicillin, 100 μg/ml streptomycin (=Pen/Strep from Invitrogen Cat. No. 15140). For the assay the cells were seeded in 384 well plates, 900 cells per well, in the same medium. At the next day, the compounds (dissolved 10 mM in DMSO) were added in various concentrations ranging from 30 μM to 1.5 nM. After 5 days, the MTT assay was done mainly according to the instructions of the manufacturer (Cell proliferation kit I, MTT, from Roche Molecular Biochemicals). In brief: MTT labeling reagent was added to a final concentration of 0.5 mg/ml, added and incubated for 4 hrs at 37° C., 5% CO2. During this incubation time purple formazan crystals are formed. After addition of the solubilization solution (20% Sodium Dodecyl Sulfate (SDS) in 0.02 M HCl) the plates were incubated overnight at 37° C., 5% CO2. After careful mixing, the plates were measured in Victor 2 (scanning multiwell spectrophotometer, Wallac) at 550 nm.
A decrease in number of living cells results in a decrease in the total metabolic activity in the sample. The decrease directly correlates to the amount of purple colour resulting from the solubilization of the purple formazan crystals. Determination of IC90 was done using XL-fit (XLfit software (ID Business Solution Ltd., Guilford, Surrey, UK)).

IC90 [nM] | SMILES
100 to 500 | CC(NC(=O)c1ccc(C(=O)NO)s1)c1cccc(-c2ccc(F)cc2)c1 (stereo not drawn) [Example 2-8, Thiophene-2,5-dicarboxylic acid 2-{[1-(4′-fluoro-biphenyl-3-yl)-ethyl]-amide} 5-hydroxyamide]
1120 | CC(NC(=O)c1ccc(C(=O)NO)s1)c1ccccc1 (stereo not drawn) [Reference compound, reference compound]

same assay, conditions: MTT assay after 5 days, read-out: IC90 HT29

IC90 [nM] | SMILES
70 | CC(NC(=O)c1ccc(C(=O)NO)s1)c1cccc(-c2cc3ccccc3s2)c1 (stereo not drawn) [Example 2-14, Thiophene-2,5-dicarboxylic acid 2-{[1-(3-benzo[b]thiophen-2-yl-phenyl)-ethyl]-amide} 5-hydroxyamide]
110 | COc1ccccc1-c1ccc(C(C)NC(=O)c2ccc(C(=O)NO)s2)s1 (stereo not drawn) [Example 3-1, Thiophene-2,5-dicarboxylic acid 2-hydroxyamide 5-({1-[5-(2-methoxy-phenyl)-thiophen-2-yl]-ethyl}-amide)]

molecular target: T1, recombinant HDAC-1 (Homo sapiens, UniProt Q13547); assay: HDAC biochemical quench assay; conditions: recombinant HDAC-1 purified from HEK 293 cells, histone H4 peptide substrate 1 μM, 90 min
T1 construct: made in house; host or cells: HEK 293 cells (ATCC-No. CRL 1573)
From the text: The function of histone deacetylase (HDAC) is the deacetylation of lysines in e.g. histone H4. A peptide of 17 amino acids derived from histone H4 was labeled with tetramethylrhodamine (TAMRA, fluorophore, Invitrogen) at the C-terminus and QSY-7™ (quencher dye, Invitrogen) at the N-terminus and was used as a substrate (TAMRA-first 17 aa of histone H4-QSY7). Following deacetylation by HDAC, the enzyme Lys C is able to cleave the peptide after lysine. […] Inhibition of HDAC by compounds results in low signals because Lys C could not cleave the substrate and the quench effect persists.
For dose response curves, 10 concentrations were diluted 1:3 starting at 30 μM. 10 μl compound dilution were put into each well of a 384 well plate. 10 μl HDAC were added (recombinant HDAC-1 purified from HEK 293 cells (human embryonic kidney cell line transformed by Adenovirus 5 fragments, ATCC-No. CRL 1573); enzyme activity has to be assessed for each preparation). 10 μl peptide substrate was added (1 μM final concentration, derived from 1 mM stock solution diluted 1:1000 in test buffer). After 90 min incubation at room temperature, the reaction was stopped by addition of 20 μl test buffer including 3 μg/ml Lys C and 0.075% Sodium Dodecyl Sulfate (SDS). After overnight incubation the fluorescence signal of TAMRA was measured (Victor 2 from Wallac, absorption 544 nm, emission 590 nm). The O.D. of DMSO (dimethylsulfoxide)-treated control wells is 100%, the % inhibition of compound treated wells is calculated in relation to 100%. Based on 10 concentrations an IC50 curve is generated by using XLfit3 (XLfit software (ID Business Solution Ltd., Guilford, Surrey, UK)).
Test buffer used: a mixture of 10 mM 4-(2-hydroxyethyl)-1-piperazineethanesulfonic acid (HEPES) pH8, 10 mM NaCl, 10% Glycerol, 0.005% Triton X100™, 0.1 mM ethylenediaminetetraacetic acid (EDTA), 0.1 mM Tris(2-carboxyethyl)phosphine (TCEP). Used plates: 384 well plates (black, Greiner, 781077).

T1 sequence (Q13547 whole entry, species assumed): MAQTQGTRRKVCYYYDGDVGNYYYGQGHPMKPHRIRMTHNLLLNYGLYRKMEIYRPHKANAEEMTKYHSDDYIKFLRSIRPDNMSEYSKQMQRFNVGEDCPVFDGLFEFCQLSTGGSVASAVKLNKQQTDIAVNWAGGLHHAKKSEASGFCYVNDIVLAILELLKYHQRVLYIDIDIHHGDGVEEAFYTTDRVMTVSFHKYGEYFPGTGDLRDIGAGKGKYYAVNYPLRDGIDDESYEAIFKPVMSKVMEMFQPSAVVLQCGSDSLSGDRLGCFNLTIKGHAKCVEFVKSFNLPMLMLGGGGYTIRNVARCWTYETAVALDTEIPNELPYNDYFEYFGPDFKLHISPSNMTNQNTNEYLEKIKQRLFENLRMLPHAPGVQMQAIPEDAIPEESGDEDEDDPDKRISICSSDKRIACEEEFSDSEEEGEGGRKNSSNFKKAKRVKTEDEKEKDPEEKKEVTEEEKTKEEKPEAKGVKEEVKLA

SMILES | IC50 [nM]
CC(NC(=O)c1ccc(C(=O)NO)s1)c1ccc(-c2ccc(N(C)C)cc2)cc1 (stereo not drawn) [Example 1-2, Thiophene-2,5-dicarboxylic acid 2-{[1-(4′-dimethylamino-biphenyl-4-yl)-ethyl]-amide} 5-hydroxyamide] | 3 to 6
CC(NC(=O)c1ccc(C(=O)NO)s1)c1cccc(-c2ccc(F)cc2)c1 (stereo not drawn) [Example 2-8, Thiophene-2,5-dicarboxylic acid 2-{[1-(4′-fluoro-biphenyl-3-yl)-ethyl]-amide} 5-hydroxyamide] | 2.52
CC(NC(=O)c1ccc(C(=O)NO)s1)c1cccc(-c2cn[nH]c2)c1 (stereo not drawn) [Example 2-18, Thiophene-2,5-dicarboxylic acid 2-hydroxyamide 5-({1-[3-(1H-pyrazol-4-yl)-phenyl]-ethyl}-amide)] | < 3
CC(NC(=O)c1ccc(C(=O)NO)s1)c1ccccc1 (stereo not drawn) [Reference compound, reference compound] | 3.12

Results, then the molecule that gave them:

IC50 [nM] | SMILES
3 to 6 | CC(NC(=O)c1ccc(C(=O)NO)s1)c1ccc(-c2cccc(F)c2)s1 (stereo not drawn) [Example 3-9, Thiophene-2,5-dicarboxylic acid 2-({1-[5-(3-fluoro-phenyl)-thiophen-2-yl]-ethyl}-amide) 5-hydroxyamide]
4.11 | CC(NC(=O)c1ccc(C(=O)NO)s1)c1ccc(-c2ccccc2F)s1 (stereo not drawn) [Example 3-12, Thiophene-2,5-dicarboxylic acid 2-({1-[5-(2-fluoro-phenyl)-thiophen-2-yl]-ethyl}-amide) 5-hydroxyamide]
3 to 6 | C[C@@H](NC(=O)c1ccc(C(=O)NO)s1)c1ccc(N2CCOCC2)cc1 [Example 4-1, (R)-Thiophene-2,5-dicarboxylic acid 2-hydroxyamide 5-{[1-(4-morpholin-4-yl-phenyl)-ethyl]-amide}]
< 3 | CC(NC(=O)c1ccc(C(=O)NO)s1)c1ccc(N2CCCCC2)cc1 (stereo not drawn) [Example 4-3, Thiophene-2,5-dicarboxylic acid 2-hydroxyamide 5-{[1-(4-piperidin-1-yl-phenyl)-ethyl]-amide}]
